One block for each compound: values may come before it.
Columns and labels:
[1] = Drug level in mouse liver microsomes treated with N205 at 5 uM after 60 mins by UPLC-MS analysis; type: ADME, microsome; details: 1 h
[2] = Drug level in rat liver microsomes treated with N205 at 5 uM after 60 mins by UPLC-MS analysis; type: ADME, microsome; details: 1 h
[3] = Drug level in human liver microsomes treated with N205 at 5 uM after 60 mins by UPLC-MS analysis; type: ADME, microsome; details: 1 h
[4] = Retention time of the compound; type: physicochemical
[5] = Solubility in 0.1 N HCl buffer at pH 1 after 4 hrs by HPLC analysis; type: physicochemical
[6] = Half life in iv dosed Sprague-Dawley rat plasma administered as 10 mins infusion by LC/MS analysis; type: ADME, organism-based
[7] = Aqueous solubility after 4 hrs by HPLC analysis; type: physicochemical; details: water
[8] = Protein binding in human liver microsomes at 1 uM by ultracentrifugation method; type: ADME, microsome; details: read-out: PB
[9] = test system: Plasmodium berghei; assay: Antimalarial activity against Plasmodium berghei infected in mouse assessed as mouse mean survival days at 30 mg/kg, po administered as single dose; type: functional
[10] = Solubility in pH 6.5 FaSSIF after 4 hrs by HPLC analysis; type: physicochemical
[11] = Half life in rat blood after 4 hrs by LC-MS method; type: ADME, tissue-based
[12] = Drug degradation in human blood after 4 hrs by LC-MS method; type: ADME, tissue-based; details: read-out: Drug degradation
[13] = Solubility in PH 7.4 PBS buffer after 4 hrs by HPLC analysis; type: physicochemical
[14] = Solubility in pH 5 FeSSIF after 4 hrs by HPLC analysis; type: physicochemical
[15] = Protein binding in human plasma at 2000 ng/ml after 6 hrs by equilibrium dialysis method; type: ADME, cell-free; details: read-out: PB
[16] = Volume of distribution at steady state in Sprague-Dawley rat plasma at 100 mg/kg, po administered via gavage or iv administered as 10 mins infusion by LC/MS analysis; type: ADME, organism-based; details: read-out: Vdss
[17] = Solubility in 0.01 N HCl buffer at pH 2 after 4 hrs by HPLC analysis; type: physicochemical
[18] = Solubility in pH 2 citric acid monophosphate buffer after 4 hrs by HPLC analysis; type: physicochemical
[19] = test system: Plasmodium berghei; assay: Antimalarial activity against Plasmodium berghei infected in mouse assessed as reduction in parasitemia at 30 mg/kg, po administered as single dose measured on day 3 relative to control; type: functional; design: scale not given: the % may be the effect or the level left
[20] = Clearance in Sprague-Dawley rat plasma at 100 mg/kg, po administered via gavage or administered as 10 mins infusion iv by LC/MS analysis; type: ADME, organism-based
[21] = Metabolic stability in rat blood after 2 to 4 hrs by LC-MS method; type: ADME, tissue-based
[22] = Metabolic stability in human blood after 2 to 4 hrs by LC-MS method; type: ADME, tissue-based
[23] = test system: Plasmodium falciparum; assay: Antimalarial activity against Plasmodium falciparum 3D7 infected in human erythrocytes after 48 hrs by SYBR Green I dye-based fluorescence assay; type: functional, organism-based; details: 3D7, 48 h
[24] = Half life in rat blood by LC-MS method; type: ADME, tissue-based
[25] = test system: Plasmodium falciparum; assay: Antimalarial activity against Plasmodium falciparum Pf3D70087/N9 infected in po dosed humanized NOD.Cg-Prkdcscid Il2rgtm1Wjl/SzJ mouse assessed as compound concentration in whole blood require to reduce parasitemia in peripheral blood by 90% administered as single dose measured on day 7 post infection by SYTO-16 dye-based flow cytometric analysis; type: functional, organism-based
[26] = test system: Plasmodium falciparum; assay: Antimalarial activity against Plasmodium falciparum Pf3D70087/N9 infected in humanized NOD.Cg-Prkdcscid Il2rgtm1Wjl/SzJ mouse assessed as reduction in parasitemia administered 4 daily doses by SYTO-16 dye-based flow cytometric analysis; type: functional
[27] = test system: Plasmodium falciparum; assay: Antimalarial activity against Plasmodium falciparum Pf3D70087/N9 infected in po dosed humanized NOD.Cg-Prkdcscid Il2rgtm1Wjl/SzJ mouse assessed as reduction in parasitemia administered as single dose measured on day 7 post infection by SYTO-16 dye-based flow cytometric analysis; type: functional; details: 168 h
[28] = Oral bioavailability in Sprague-Dawley rat at 100 mg/kg administered via gavage by LC/MS analysis; type: ADME, organism-based; details: in vivo
[29] = Half life in Sprague-Dawley rat at 10 mg/kg, po; type: ADME, organism-based; details: in vivo

SMILES: OCCNCc1ccc(C2CCC3(CC2)OOC2(OO3)C3CC4CC(C3)CC2C4)cc1 (centres undefined)
- Drug metabolism [1]: Metabolite_Detected
- Drug metabolism [2]: Metabolite_Detected
- Drug metabolism [3]: Metabolite_Detected
- Retention_time [4]: 3.54 min

SMILES: CS(=O)(=O)O.c1cc(C2CCC3(CC2)OOC2(OO3)C3CC4CC(C3)CC2C4)ccc1CN1CCOCC1 (centres undefined)
- solubility at 4 h [5]: 17 µg/mL
- half-life [6]: 6.35 h
- solubility at 4 h [7]: > 9000 µg/mL
- fraction unbound at 1 µM [8]: < 0.001
- MSD [9]: 25 days
- solubility at 4 h [10]: 18 µg/mL
- half-life [11]: 8 h
- metabolised at 4 h [12]: 10%
- solubility at 4 h [13]: < 0.1 µg/mL
- solubility ([14]; simulated gi fluid, pH 5, 4 h): 760 µg/mL
- fraction unbound at 6 h, 2000 ng/ml [15]: < 0.001
- Vd [16]: 11 L/kg
- solubility at 4 h [17]: 172 µg/mL
- solubility at 4 h [18]: > 9000 µg/mL
- Activity [19]: 99.3%
- clearance [20]: 77 mL/min/kg

SMILES: FC1CCN(Cc2ccc(C3CCC4(CC3)OOC3(OO4)C4CC5CC(C4)CC3C5)cc2)CC1 (centres undefined)
- Stability [21]: Stable
- Stability [22]: Stable
- IC50 [23]: 1.8 nM

SMILES: CN1CCN(C(=O)c2ccc(C3CCC4(CC3)OOC3(OO4)C4CC5CC(C4)CC3C5)cc2)CC1 (centres undefined)
- half-life [24]: < 4 h
- IC50 [23]: 6.4 nM

SMILES: c1cc(C2CCC3(CC2)OOC2(OO3)C3CC4CC(C3)CC2C4)ccc1CN1CCOCC1 (centres undefined)
- AUCED90 [25]: < 0.75 µg·h/mL

- Drug metabolism [1]: Metabolite_Detected
- Drug metabolism [2]: Metabolite_Detected
- Drug metabolism [3]: Metabolite_Detected
- Retention_time [4]: 0.86 min
SMILES: OC1CCC(c2ccc(CN3CCOCC3)cc2)CC1 (centres undefined)

SMILES: O=C(c1ccc(C2CCC3(CC2)OOC2(OO3)C3CC4CC(C3)CC2C4)cc1)N1CCCNCC1 (centres undefined)
- half-life [24]: < 4 h
- IC50 [23]: 0.82 nM

SMILES: NC1CCN(C(=O)c2ccc(C3CCC4(CC3)OOC3(OO4)C4CC5CC(C4)CC3C5)cc2)CC1 (centres undefined)
- MSD [9]: 8 days
- half-life [24]: < 4 h
- Activity [19]: 99%
- IC50 [23]: 4.2 nM

SMILES: O=C(c1ccc(C2CCC3(CC2)OOC2(OO3)C3CC4CC(C3)CC2C4)cc1)N1CCSCC1 (centres undefined)
- half-life [24]: < 4 h
- IC50 [23]: 15 nM

SMILES: C[C@H]1[C@H](OC(=O)CCC(=O)O)O[C@@H]2O[C@@]3(C)CC[C@H]4[C@H](C)CC[C@@H]1[C@@]24OO3 [ARTESUNATE]
- MSD [9]: 6.8 days
- ED90 [26]: 10 mg/kg
- Activity [19]: 99.09%

SMILES: CNCCNC(=O)c1ccc(C2CCC3(CC2)OOC2(OO3)C3CC4CC(C3)CC2C4)cc1 (centres undefined)
- half-life [24]: < 4 h
- IC50 [23]: 0.84 nM

SMILES: c1cc(C2CCC3(CC2)OOC2(O3)C3CC4CC(C3)CC2C4)ccc1OCCN1CCOCC1 (centres undefined) [listing 1 of 2 here]
- ED90 [27]: 6.2 mg/kg
- MSD [9]: 30 days
- Activity [19]: 99.4%
- IC50 [23]: 8 nM

SMILES: NCCNC(=O)c1ccc(C2CCC3(CC2)OOC2(OO3)C3CC4CC(C3)CC2C4)cc1 (centres undefined)
- half-life [24]: < 4 h
- IC50 [23]: 1.1 nM

SMILES: CC(C)(N)CNC(=O)CC1CCC2(CC1)OOC1(O2)C2CC3CC(C2)CC1C3 (centres undefined)
- MSD [9]: 10.2 days
- Activity [19]: 99.98%

SMILES: NC1CN(C(=O)c2ccc(C3CCC4(CC3)OOC3(OO4)C4CC5CC(C4)CC3C5)cc2)C1 (centres undefined)
- half-life [24]: < 4 h
- IC50 [23]: 33 nM

- Drug metabolism [1]: Metabolite_Detected
- Drug metabolism [2]: Metabolite_Detected
- Drug metabolism [3]: Metabolite_Detected
- Retention_time [4]: 0.84 min
SMILES: O=C1CCC(c2ccc(CN3CCOCC3)cc2)CC1

SMILES: c1cc(C2CCC3(CC2)OOC2(O3)C3CC4CC(C3)CC2C4)ccc1OCCN1CCOCC1 (centres undefined) [listing 2 of 2 here]
- AUCED90 [25]: 0.68 µg·h/mL

SMILES: CS(=O)(=O)O.c1cc(C2CCC3(CC2)OOC2(O3)C3CC4CC(C3)CC2C4)ccc1OCCN1CCOCC1 (centres undefined)
- solubility at 4 h [5]: 34 µg/mL
- solubility at 4 h [7]: 6800 µg/mL
- bioavailability [28]: 100%
- solubility at 4 h [10]: 120 µg/mL
- solubility at 4 h ([14]; FeSSIF, pH 5): > 1500 µg/mL
- Vd [16]: 18 L/kg
- solubility at 4 h [17]: 240 µg/mL
- solubility at 4 h [18]: > 8000 µg/mL

SMILES: O=C(c1ccc(C2CCC3(CC2)OOC2(OO3)C3CC4CC(C3)CC2C4)cc1)N1CCNCC1 (centres undefined)
- MSD [9]: 10 days
- half-life [24]: < 4 h
- Activity [19]: 99%
- IC50 [23]: 3 nM

SMILES: O=C(c1ccc(C2CCC3(CC2)OOC2(OO3)C3CC4CC(C3)CC2C4)cc1)N1CCOCC1 (centres undefined)
- half-life [24]: < 4 h
- IC50 [23]: 7.1 nM

SMILES: O=C(NCC1CCNCC1)c1ccc(C2CCC3(CC2)OOC2(OO3)C3CC4CC(C3)CC2C4)cc1 (centres undefined)
- half-life [24]: < 4 h
- IC50 [23]: 5.3 nM

SMILES: CN1CCN(C2CCN(C(=O)CC3CCC4(CC3)OOC3(OO4)C4CC5CC(C4)CC3C5)CC2)CC1 (centres undefined)
- MSD [9]: 11.4 days
- half-life [29]: 3.5 h
- Activity [19]: 99.98%

SMILES: CS(=O)(=O)O.FC1CCN(Cc2ccc(C3CCC4(CC3)OOC3(OO4)C4CC5CC(C4)CC3C5)cc2)CC1 (centres undefined)
- MSD [9]: 13 days
- Activity [19]: 99.98%

Reference: ChEMBL document CHEMBL4118195, “Synthesis and profiling of benzylmorpholine 1,2,4,5-tetraoxane analogue N205: Towards tetraoxane scaffolds with potential for single dose cure of malaria” (Bioorg Med Chem, 2018)
